Data as given in patent US6780994B2, “Phthalimido arylpiperazines useful in the treatment of benign prostatic hyperplasia” (Ortho-McNeil Pharmaceutical, Inc., priority 1998, dated 2004).

How the values were obtained:
[1] = biological target: T1, α1b-AR (Homo sapiens, UniProt P35368); assay: radioligand ([125I]-HEAT) receptor binding assay, COS cell membranes expressing cloned receptor; conditions: [125I]-HEAT 50 pM, 1 hour room temperature
T1 construct: expressed in transfected cells; host or cells: COS cells, pcDNA3 vector, transient DEAE-dextran transfection
T1 sequence (P35368 1-520): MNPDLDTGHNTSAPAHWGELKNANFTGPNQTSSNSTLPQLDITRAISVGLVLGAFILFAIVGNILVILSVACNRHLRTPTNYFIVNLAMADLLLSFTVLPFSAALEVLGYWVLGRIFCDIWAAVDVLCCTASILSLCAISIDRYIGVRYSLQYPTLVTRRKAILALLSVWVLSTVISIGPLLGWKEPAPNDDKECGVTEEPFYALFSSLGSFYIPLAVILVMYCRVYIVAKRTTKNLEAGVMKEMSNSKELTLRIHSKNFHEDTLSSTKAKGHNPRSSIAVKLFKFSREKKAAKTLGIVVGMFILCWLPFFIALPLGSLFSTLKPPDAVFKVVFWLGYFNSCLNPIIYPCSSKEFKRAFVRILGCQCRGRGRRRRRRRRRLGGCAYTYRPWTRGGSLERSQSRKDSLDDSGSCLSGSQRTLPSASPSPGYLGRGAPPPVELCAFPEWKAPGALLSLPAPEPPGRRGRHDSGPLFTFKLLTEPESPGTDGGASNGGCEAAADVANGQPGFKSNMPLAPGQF
From the text: (§1) The first assay tested the ability of compounds of Formula I to bind to membrane bound receptors α1a-AR, α1b-AR and α1d-AR.
(§2) The DNA sequences of the three cloned human α1-AR subtypes have been published. […] We used published DNA sequence information to design primers for use in RT-PCR amplification of each subtype to obtain cloned cDNAs. Human poly A+ RNA was obtained from commercially available sources and included hippocampus and prostate samples, sources which have been cited in the literature. For the primary screen a radioligand binding assay was used which employed membrane preparations from cells expressing the individual cloned receptor cDNAs. Radiolabeled ligands with binding activity on all three subtypes (non-selective) are commercially available ([125I]-HEAT, [3H]-prazosin). Each α1 receptor subtype was cloned from poly A+ RNA by the standard method of reverse transcription-polymerase chain reaction (RT-PCR). The following sources of polyA+ RNA were used for the cloning of the α1 receptor subtypes: α1a-AR, human hippocampus and prostate, α1b-AR, human hippocampus, α1d-AR, human hippocampus. The resulting cDNAs were cloned into the pcDNA3 mammalian expression vector (Invitrogen Corp., San Diego Calif.). Each DNA was sequenced for verification and to detect any possible mutations introduced during the amplification process. Any deviation in sequence from the published consensus for each receptor subtype was corrected by site-directed mutagenesis.
(§3) The three α1-AR subtypes (a, b, d) were transfected into COS cells using a standard DEAE-dextran procedure with a chloroquine shock. In this procedure, each tissue culture dish (100 mm) was inoculated with 3.5×10^6 cells and transfected with 10 μg of DNA. Approximately 72 hours post-transfection, the cells were harvested and COS membranes were prepared. Transfected COS cells from 25 plates (100 mm) were scraped and suspended in 15 mL of TE buffer (50 mM Tris-HCl, 5 mM EDTA, pH 7.4). The suspension was disrupted with a homogenizer. It was then centrifuged at 1000× g for 10 minutes at 4° C. The supernatant was centrifuged at 34,500× g for 20 minutes at 4° C. The pellet was resuspended in 5 mL TNE buffer (50 mM Tris-HCl, 5 mM EDTA, 150 mM NaCl, pH 7.4). The resulting membrane preparation was aliquoted and stored at −70° C. The protein concentration was determined following membrane solubilization with TritonX-100.
(§4) The ability of each compound to bind to each of the α1-AR subtypes was assessed in a receptor binding assay. [125I]-HEAT, a non-selective α1-AR ligand, was used as the radiolabeled ligand. Each well of a 96-well plate received: 140 μL TNE, […] [125I]-HEAT diluted in TNE (50,000 cpm; final concentration 50 pM), 10 μL test compound diluted in DMSO (final concentration 1 pM-10 μM), […] COS cell membrane preparation expressing one of the three α1-AR subtypes (0.05-0.2 mg membrane protein). The plate was incubated for 1 hour at room temperature and the reaction mixtures were filtered through a Packard GF/C Unifilter filter plate. The filter plate was dried for 1 hour in a vacuum oven. Scintillation fluid ([…]) was added to each well, and the filter plate was counted in a Packard Topcount scintillation counter. Data was analyzed using GraphPad Prism software.
(§5) Tables A through D list the IC50 values expressed in nanomolar concentration for select compounds of the invention in all receptor subtypes.

[2] = biological target: T2, α1d-AR (Homo sapiens, UniProt P25100); assay: as above; conditions: [125I]-HEAT 50 pM, 1 hour room temperature
T2 construct: expressed in transfected cells; host or cells: COS cells, pcDNA3 vector, transient DEAE-dextran transfection
T2 sequence (P25100 1-572): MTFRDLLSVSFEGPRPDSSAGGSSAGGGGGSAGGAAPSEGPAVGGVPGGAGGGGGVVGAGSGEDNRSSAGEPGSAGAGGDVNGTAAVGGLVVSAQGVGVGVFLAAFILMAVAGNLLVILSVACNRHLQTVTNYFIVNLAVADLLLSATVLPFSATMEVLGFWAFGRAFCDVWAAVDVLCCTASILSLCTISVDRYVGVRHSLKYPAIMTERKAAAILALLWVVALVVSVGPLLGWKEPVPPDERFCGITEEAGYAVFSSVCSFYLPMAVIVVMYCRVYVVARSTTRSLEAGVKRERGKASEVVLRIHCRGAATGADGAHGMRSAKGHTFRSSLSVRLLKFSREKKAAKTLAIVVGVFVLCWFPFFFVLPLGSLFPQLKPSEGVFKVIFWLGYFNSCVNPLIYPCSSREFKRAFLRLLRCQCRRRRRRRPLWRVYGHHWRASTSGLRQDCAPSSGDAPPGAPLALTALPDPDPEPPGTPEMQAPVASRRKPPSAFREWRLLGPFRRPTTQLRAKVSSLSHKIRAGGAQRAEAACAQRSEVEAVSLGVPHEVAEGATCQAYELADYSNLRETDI
From the text: as §1, §2, §3, §4, §5

Row | SMILES | IC50 [1] [nM] | IC50 [2] [nM]
1 | CC(C)Oc1ccccc1N1CCN(CCCNC(=O)c2ccc3c(c2)C(=O)N(c2ccc(N(C)C)cc2)C3=O)CC1 [Compound 44] | 465 | 15
2 | COc1ccccc1N1C(=O)c2ccc(C(=O)NCC(O)CN3CCN(c4ccccc4OC(C)C)CC3)cc2C1=O (centres unmarked) [Compound 26] | 1640 | 74
3 | CC(C)Oc1ccccc1N1CCN(CC(O)CNC(=O)c2ccc3c(c2)C(=O)N(c2cccnc2)C3=O)CC1 (centres unmarked) [Compound 11] | > 2000 | 31
4 | Cc1ccc(N2C(=O)c3ccc(C(=O)NCC(O)CN4CCN(c5ccccc5OC(C)C)CC4)cc3C2=O)cc1C (centres unmarked) [Compound 39] | > 2000 | 73
5 | CC(C)Oc1ccccc1N1CCN(CC(O)CNC(=O)c2ccc3c(c2)C(=O)N(c2cccc(F)c2)C3=O)CC1 (racemic) [Compound 4] | 1830 | 76
6 | CC(C)Oc1ccccc1N1CCN(CC(O)CNC(=O)c2ccc3c(c2)C(=O)N(c2cc(F)cc(F)c2)C3=O)CC1 (centres unmarked) [Compound 29] | 886 | 38
7 | CC(C)Oc1ccccc1N1CCN(C[C@@H](O)CNC(=O)c2ccc3c(c2)C(=O)N(c2ccc(N(C)C)cc2)C3=O)CC1 [Compound 21, (S)-2-[4-(dimethylamino)phenyl]-2,3-dihydro-N-[2-hydroxy-3-[4-[2-(1-methylethoxy)phenyl]-1-piperazinyl]propyl]-1,3-dioxo-1H-isoindole-5-carboxamide] | > 2000 | 52
8 | CC(C)Oc1ccccc1N1CCN(CC(O)CNC(=O)c2ccc3c(c2)C(=O)N(c2ccc(N(C)C)cc2)C3=O)CC1 (centres unmarked) [Compound 28] | > 2000 | 44
9 | CC(C)Oc1ccccc1N1CCN(CCCNC(=O)c2ccc3c(c2)C(=O)N(c2ccc(O)cc2)C3=O)CC1 [Compound 47] | 255 | 13
10 | CC(C)Oc1ccccc1N1CCN(CC(O)CNC(=O)c2ccc3c(c2)C(=O)N(c2ccc(O)cc2)C3=O)CC1 (single isomer, unassigned) [Compound 35] | > 2000 | 137
11 | CC(C)Oc1ccccc1N1CCN(CC(O)CNC(=O)c2ccc3c(c2)C(=O)N(c2ccc([N+](=O)[O-])cc2)C3=O)CC1 (centres unmarked) [Compound 30] | > 2000 | 38
12 | Cc1ccc(N2C(=O)c3ccc(C(=O)NCCCN4CCN(c5ccccc5OC(C)C)CC4)cc3C2=O)cc1 [Compound 46] | > 2000 | 37
13 | COc1ccc(N2C(=O)c3ccc(C(=O)NCCCN4CCN(c5ccccc5OC(C)C)CC4)cc3C2=O)cc1 [Compound 45] | 361 | 16
14 | CC(C)Oc1ccccc1N1CCN(C[C@@H](O)CNC(=O)c2ccc3c(c2)C(=O)N(c2cccc(F)c2)C3=O)CC1 [Compound 9] | > 2000 | 190
15 | CCOc1ccccc1N1CCN(CC(O)CNC(=O)c2ccc3c(c2)C(=O)N(c2cccc(F)c2)C3=O)CC1 (centres unmarked) [Compound 42] | > 2000 | 136
16 | COc1ccc(N2C(=O)c3ccc(C(=O)NCC(O)CN4CCN(c5ccccc5OC(C)C)CC4)cc3C2=O)cc1OC (centres unmarked) [Compound 38] | > 2000 | 175
17 | CC(C)Oc1ccccc1N1CCN(C[C@H](O)CNC(=O)c2ccc3c(c2)C(=O)N(c2cccc(F)c2)C3=O)CC1 [Compound 27] | > 2000 | 63
18 | CC(C)Oc1ccccc1N1CCN(CC(O)CNC(=O)c2ccc3c(c2)C(=O)N(c2ccc(C(C)(C)C)cc2)C3=O)CC1 (centres unmarked) [Compound 41] | > 2000 | 75
19 | COc1ccccc1N1CCN(CC(O)CNC(=O)c2ccc3c(c2)C(=O)N(c2cccc(F)c2)C3=O)CC1 (centres unmarked) [Compound 43] | > 2000 | 540
20 | CC(C)Oc1ccccc1N1CCN(CCCNC(=O)c2ccc3c(c2)C(=O)N(c2cccc(F)c2)C3=O)CC1 [Compound 6] | 482 | 22
21 | COC(CNC(=O)c1ccc2c(c1)C(=O)N(c1cccc(F)c1)C2=O)CN1CCN(c2ccccc2OC(C)C)CC1 (centres unmarked) [Compound 14] | > 2000 | 407

The next lines start with the values.

Row | IC50 [1] [nM] | IC50 [2] [nM] | SMILES
22 | > 2000 | 62 | Cc1ccc(N2C(=O)c3ccc(C(=O)NCC(O)CN4CCN(c5ccccc5OC(C)C)CC4)cc3C2=O)cc1 (centres unmarked) [Compound 52]
23 | > 2000 | 65 | CC(C)Oc1ccccc1N1CCN(CC(O)CNC(=O)c2ccc3c(c2)C(=O)N(c2ccccc2)C3=O)CC1 (centres unmarked) [Compound 51]
24 | 606 | 55 | CC(C)Oc1ccccc1N1CCN(CC(O)CNC(=O)c2ccc3c(c2)C(=O)N(c2ccc(Cl)cc2)C3=O)CC1 (centres unmarked) [Compound 53]
25 | 669 | 37 | CC(C)Oc1ccccc1N1CCN(CC(O)CNC(=O)c2ccc3c(c2)C(=O)N(c2cccc(Cl)c2)C3=O)CC1 (centres unmarked) [Compound 54]
26 | > 2000 | 89 | CC(C)Oc1ccccc1N1CCN(CC(O)CNC(=O)c2ccc3c(c2)C(=O)N(c2cccc(C(F)(F)F)c2)C3=O)CC1 (centres unmarked) [Compound 57]
27 | > 2000 | 73 | Cc1cccc(N2C(=O)c3ccc(C(=O)NCC(O)CN4CCN(c5ccccc5OC(C)C)CC4)cc3C2=O)c1 (centres unmarked) [Compound 49]
28 | 1230 | 40 | CC(C)Oc1ccccc1N1CCN(CC(O)CNC(=O)c2ccc3c(c2)C(=O)N(c2ccc(Cl)c(Cl)c2)C3=O)CC1 (centres unmarked) [Compound 56]
29 | > 2000 | 111 | CC(C)Oc1ccccc1N1CCN(CC(O)CNC(=O)c2ccc3c(c2)C(=O)N(c2ccc(F)cc2)C3=O)CC1 (centres unmarked) [Compound 50]
30 | > 2000 | 60 | CC(=O)c1ccc(N2C(=O)c3ccc(C(=O)NCC(O)CN4CCN(c5ccccc5OC(C)C)CC4)cc3C2=O)cc1 (centres unmarked) [Compound 48]
31 | > 2000 | 28 | CC(C)Oc1ccccc1N1CCN(CC(O)CNC(=O)c2ccc3c(c2)C(=O)N(c2ccc(O)cc2)C3=O)CC1 (centres unmarked) [Compound 58]
